Data as given in patent US20250136607A1 (REGOR PHARMACEUTICALS, INC., priority 2021, published 2025).

Biological target: Protein arginine deiminase 4 (PAD4) (Homo sapiens, UniProt Q9UM07)
Test: PAD4 ammonia release assay
Assay type: biochemical
Settings: PAD4 activity comparison; read-out: PAD4 Ammonia assay IC50
Experimental: 1) Compound preparation: The compounds were diluted to 80× final concentrations. 2) The compounds were transferred to a 384-well assay plate by Tecan. DMSO: 1.25%. 3) Preparation of 1×Assay buffer: 100 mM HEPES, PH=8.0, 2 mM CaCl2, 50 mM NaCl, 0.1 mM TCEP, 0.6 mg/ml BSA. 4) 2× enzyme working solution (PAD4:20 nM) was prepared with assay buffer, and 10 μL of the obtained working solution were added to the 384-well assay plates. 5) The plate was centrifuged at 1000 rpm for 1 min. 6) After the centrifuge, the plate was incubated at RT for 15 min. 7) 2×BAEE substrate mix (600 μM) was prepared with assay buffer and 10 μL of the obtained substrate mix were added to each well. 8) The plate was centrifuged at 1000 rpm for 1 min and then incubated at RT for 60 min. 9) 1.5× detection mix (DTT:4 mM, OPA:3 mM, EDTA: 30 mM) was prepared, and 10 μL of the mix were added to the plate. 10) The plate was centrifuged at 1000 rpm for 1 min and then incubated at RT for 120 min. 11) The 384-well plates were placed into the Envision (PerkinElmer) and the assay data were collected.
The percent (%) inhibition at each concentration of compound was calculated based on and relative to the signal in the HPE (50 μM ref. compound) and ZPE (1.25% DMSO) wells included within each assay plate. The HPE worked as 100% inhibition, and the ZPE worked as 0% inhibition. The concentrations and % inhibition values for tested compounds were plotted and the concentration of compound required for 50% inhibition (IC50) was determined with a Four-parameter logistic dose response equation. The endpoint value (IC50) for the reference compound was evaluated in each experiment as a quality control measure. If the endpoint value is within 3-fold of the expected value, then the experiment quality is deemed as acceptable. The results are provided in Table 1 below. ≤0.1 μM=“++++”; >0.1 and ≤0.5 μM=“+++”; >0.5 and ≤5.0 μM=“++”; >5.0 μM=“+”. “−”=not available.

Chain of Protein arginine deiminase 4 (PAD4) (Q9UM07 whole entry): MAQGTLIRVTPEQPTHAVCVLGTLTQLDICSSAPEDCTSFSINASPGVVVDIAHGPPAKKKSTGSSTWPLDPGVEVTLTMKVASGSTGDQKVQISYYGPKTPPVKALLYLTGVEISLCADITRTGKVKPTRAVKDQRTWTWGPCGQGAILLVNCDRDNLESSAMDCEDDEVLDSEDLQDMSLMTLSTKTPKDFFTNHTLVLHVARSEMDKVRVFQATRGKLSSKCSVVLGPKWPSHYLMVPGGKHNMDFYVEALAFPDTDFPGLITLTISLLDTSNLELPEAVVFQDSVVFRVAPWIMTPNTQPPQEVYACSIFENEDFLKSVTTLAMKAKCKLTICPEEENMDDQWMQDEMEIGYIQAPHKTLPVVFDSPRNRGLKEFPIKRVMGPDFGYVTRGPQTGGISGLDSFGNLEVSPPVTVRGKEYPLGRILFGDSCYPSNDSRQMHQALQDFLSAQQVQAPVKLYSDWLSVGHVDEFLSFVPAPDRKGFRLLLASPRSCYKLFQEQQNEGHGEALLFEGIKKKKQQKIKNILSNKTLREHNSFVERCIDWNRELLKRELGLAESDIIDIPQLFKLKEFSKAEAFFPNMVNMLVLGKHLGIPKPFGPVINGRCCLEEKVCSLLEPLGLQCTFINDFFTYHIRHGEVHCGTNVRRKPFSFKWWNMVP

Row | Structure (SMILES) | IC50
1 | CC1CNc2cccc3cc(-c4nc5cc(C(=O)N6CCC[C@@H](N)C6)ccc5n4C)n1c23 (stereo partly drawn) [Example 167, ((R)-3-aminopiperidin-1-yl)(1-methyl-2-(3-methyl-2,3-dihydro-1H-pyrrolo[1,2,3-de]quinoxalin-5-yl)-1H-benzo[d]imidazol-5-yl)methanone] | 4090 nM

Same assay, conditions: PAD4 ammonia release assay, BAEE substrate, 60 min at RT; read-out: Average IC50 Abs

Row | Structure (SMILES) | IC50
2 | COc1cc(C(=O)N2C[C@H]3CC[C@@H]2[C@@H]3N)cc2nc(-c3cc4cccc5c4n3CCN5CCCNC(=O)NC3CC3)n(C)c12 [Example 6, 1-(3-(5-(5-((1R,4R,7R)-7-amino-2-azabicyclo[2.2.1]heptane-2-carbonyl)-7-methoxy-1-methyl-1H-benzo[d]imidazol-2-yl)-2,3-dihydro-1H-pyrrolo[1,2,3-de]quinoxalin-1-yl)propyl)-3-cyclopropylurea] | 500 to 5000 nM
3 | COc1cc(C(=O)N2CCC[C@@H](N)C2)cc2nc(-c3cc4cccc5c4n3CC(=O)N5)n(C)c12 [Example 9, (R)-5-(5-(3-aminopiperidine-1-carbonyl)-7-methoxy-1-methyl-1H-benzo[d]imidazol-2-yl)-1H-pyrrolo[1,2,3-de]quinoxalin-2(3H)-one] | > 5000 nM
4 | Cn1c(-c2cc3ccc4c(c3n2CC2CC2)CCN4)nc2cc(C(=O)N3C[C@H]4CC[C@@H]3[C@@H]4N)cc(F)c21 [Example 143, ((1R,4R,7R)-7-amino-2-azabicyclo[2.2.1]heptan-2-yl)(2-(1-(cyclopropylmethyl)-1,6,7,8-tetrahydropyrrolo[2,3-e]indol-2-yl)-7-fluoro-1-methyl-1H-benzo[d]imidazol-5-yl)methanone] | 100 to 500 nM
5 | CCn1cc(Cn2c(-c3cc4cccc5c4n3CCN5CCO)nc3cc(C(=O)N4C[C@H](N)C[C@@H](F)C4)cc(F)c32)cn1 [Example 39, ((3R,5R)-3-amino-5-fluoropiperidin-1-yl)(1-((1-ethyl-1H-pyrazol-4-yl)methyl)-7-fluoro-2-(1-(2-hydroxyethyl)-2,3-dihydro-1H-pyrrolo[1,2,3-de]quinoxalin-5-yl)-1H-benzo[d]imidazol-5-yl)methanone] | 100 to 500 nM
6 | Cn1c(-c2cc3ccc4c(c3n2CC2CC2)NCC4(C)C)nc2cc(C(=O)N3C[C@H]4CC[C@@H]3[C@@H]4N)cc(F)c21 [Example 142, ((1R,4R,7R)-7-amino-2-azabicyclo[2.2.1]heptan-2-yl)(2-(1-(cyclopropylmethyl)-6,6-dimethyl-1,6,7,8-tetrahydropyrrolo[3,2-g]indol-2-yl)-7-fluoro-1-methyl-1H-benzo[d]imidazol-5-yl)methanone] | 500 to 5000 nM
7 | COc1cc(C(=O)N2CCC3(CC2)CC3N)cc2nc(-c3cc4cccc5c4n3CCN5CCCO)n(CC3CC3)c12 (stereo not drawn) [Example 56, (1-amino-6-azaspiro[2.5]octan-6-yl)(1-(cyclopropylmethyl)-2-(1-(3-hydroxypropyl)-2,3-dihydro-1H-pyrrolo[1,2,3-de]quinoxalin-5-yl)-7-methoxy-1H-benzo[d]imidazol-5-yl)methanone] | > 5000 nM
8 | CC1CNc2cccc3cc(-c4nc5cc(C(=O)N6CCC[C@@H](N)C6)ccc5n4C)n1c23 (stereo partly drawn) [Example 167, ((R)-3-aminopiperidin-1-yl)(1-methyl-2-(3-methyl-2,3-dihydro-1H-pyrrolo[1,2,3-de]quinoxalin-5-yl)-1H-benzo[d]imidazol-5-yl)methanone] | 500 to 5000 nM
9 | COc1cc(C(=O)N2C[C@H]3CC[C@@H]2[C@@H]3N)cc2nc(-c3cc4cccc5c4n3CCN5CCCO)n(Cc3cnn(C)c3)c12 [Example 45, ((1R,4R,7R)-7-amino-2-azabicyclo[2.2.1]heptan-2-yl)(2-(1-(3-hydroxypropyl)-2,3-dihydro-1H-pyrrolo[1,2,3-de]quinoxalin-5-yl)-7-methoxy-1-((1-methyl-1H-pyrazol-4-yl)methyl)-1H-benzo[d]imidazol-5-yl)methanone] | > 5000 nM
10 | COc1cc(C(=O)N2CCC[C@@H](N)C2)cc2nc(-c3cc4cccc5c4n3CCN5CCCNC(C)=O)n(C)c12 [Example 3, (R)—N-(3-(5-(5-(3-aminopiperidine-1-carbonyl)-7-methoxy-1-methyl-1H-benzo[d]imidazol-2-yl)-2,3-dihydro-1H-pyrrolo[1,2,3-de]quinoxalin-1-yl)propyl)acetamide] | 500 to 5000 nM
11 | Cn1c(-c2cc3ccc4c(c3n2CC2CC2)NC(=O)C4(C)C)nc2cc(C(=O)N3C[C@H]4CC[C@@H]3[C@@H]4N)cc(F)c21 [Example 141, 7-(5-((1R,4R,7R)-7-amino-2-azabicyclo[2.2.1]heptane-2-carbonyl)-7-fluoro-1-methyl-1H-benzo[d]imidazol-2-yl)-8-(cyclopropylmethyl)-3,3-dimethyl-3,8-dihydropyrrolo[3,2-g]indol-2(1H)-one] | 500 to 5000 nM
12 | CN1CCc2c(ccc3cc(-c4nc5cc(C(=O)N6C[C@H]7CC[C@@H]6[C@@H]7N)cc(F)c5n4C)n(CC4CC4)c23)C1 [Example 152, ((1R,4R,7R)-7-amino-2-azabicyclo[2.2.1]heptan-2-yl)(2-(1-(cyclopropylmethyl)-7-methyl-6,7,8,9-tetrahydro-1H-pyrrolo[2,3-f]isoquinolin-2-yl)-7-fluoro-1-methyl-1H-benzo[d]imidazol-5-yl)methanone] | 100 to 500 nM
13 | COc1cc(C(=O)N2C[C@@H](N)C3(CC3)C2)cc2nc(-c3cc4cccc5c4n3CCN5CCCO)n(CC3CC3)c12 [Example 61, (S)-(7-amino-5-azaspiro[2.4]heptan-5-yl)(1-(cyclopropylmethyl)-2-(1-(3-hydroxypropyl)-2,3-dihydro-1H-pyrrolo[1,2,3-de]quinoxalin-5-yl)-7-methoxy-1H-benzo[d]imidazol-5-yl)methanone] | > 5000 nM
14 | CCn1c(-c2cc3cccc4c3n2C(C)CN4CCCO)nc2cc(C(=O)N3C[C@H]4CC[C@@H]3[C@@H]4NC(=O)OC(C)(C)C)cc(OC)c21 (stereo partly drawn) [Example 67, tert-butyl ((1R,4R,7R)-2-(1-ethyl-2-(1-(3-hydroxypropyl)-3-methyl-2,3-dihydro-1H-pyrrolo[1,2,3-de]quinoxalin-5-yl)-7-methoxy-1H-benzo[d]imidazole-5-carbonyl)-2-azabicyclo[2.2.1]heptan-7-yl)carbamate] | > 5000 nM
15 | COc1cc(C(=O)N2CC3CNC3C2)cc2nc(-c3cc4cccc5c4n3CCN5CCCO)n(CC3CC3)c12 (stereo not drawn) [Example 53, (3,6-diazabicyclo[3.2.0]heptan-3-yl)(1-(cyclopropylmethyl)-2-(1-(3-hydroxypropyl)-2,3-dihydro-1H-pyrrolo[1,2,3-de]quinoxalin-5-yl)-7-methoxy-1H-benzo[d]imidazol-5-yl)methanone] | > 5000 nM
16 | CCC1CN(CC(C)(C)CO)c2cccc3cc(-c4nc5cc(C(=O)N6C[C@H]7CC[C@@H]6[C@@H]7N)cc(F)c5n4C)n1c23 (stereo partly drawn) [Example 89, ((1R,4R,7R)-7-amino-2-azabicyclo[2.2.1]heptan-2-yl)(2-(3-ethyl-1-(3-hydroxy-2,2-dimethylpropyl)-2,3-dihydro-1H-pyrrolo[1,2,3-de]quinoxalin-5-yl)-7-fluoro-1-methyl-1H-benzo[d]imidazol-5-yl)methanone] | 100 to 500 nM
17 | COc1cc(C(=O)N2C[C@H](N)C[C@@H](F)C2)cc2nc(-c3cc4cccc5c4n3CCN5C(=O)CC#N)n(C)c12 [Example 30, 3-(5-(5-((3R,5R)-3-amino-5-fluoropiperidine-1-carbonyl)-7-methoxy-1-methyl-1H-benzo[d]imidazol-2-yl)-2,3-dihydro-1H-pyrrolo[1,2,3-de]quinoxalin-1-yl)-3-oxopropanenitrile] | > 5000 nM
18 | C#CCn1c(-c2cc3cccc4c3n2C(CC)CN4CCCO)nc2cc(C(=O)N3C[C@H]4CC[C@@H]3[C@@H]4N)cc(OC)c21 (stereo partly drawn) [Example 90, ((1R,4R,7R)-7-amino-2-azabicyclo[2.2.1]heptan-2-yl)(2-(3-ethyl-1-(3-hydroxypropyl)-2,3-dihydro-1H-pyrrolo[1,2,3-de]quinoxalin-5-yl)-7-methoxy-1-(prop-2-yn-1-yl)-1H-benzo[d]imidazol-5-yl)methanone] | 100 to 500 nM
19 | CCC1C(=O)Nc2c(Cl)ccc3cc(-c4nc5cc(C(=O)N6C[C@H]7CC[C@@H]6[C@@H]7N)cc(F)c5n4C)n1c23 (stereo partly drawn) [Example 124, 5-(5-((1R,4R,7R)-7-amino-2-azabicyclo[2.2.1]heptane-2-carbonyl)-7-fluoro-1-methyl-1H-benzo[d]imidazol-2-yl)-9-chloro-3-ethyl-1H-pyrrolo[1,2,3-de]quinoxalin-2(3H)-one] | 500 to 5000 nM
20 | CCC1CN(CCCO)c2cccc3cc(-c4nc5cc(C(=O)N6C[C@H]7CC[C@@H]6[C@@H]7N)c(F)c(F)c5n4C)n1c23 (stereo partly drawn) [Example 78, ((1R,4R,7R)-7-amino-2-azabicyclo[2.2.1]heptan-2-yl)(2-(3-ethyl-1-(3-hydroxypropyl)-2,3-dihydro-1H-pyrrolo[1,2,3-de]quinoxalin-5-yl)-6,7-difluoro-1-methyl-1H-benzo[d]imidazol-5-yl)methanone] | 500 to 5000 nM
21 | COc1cc(C(=O)N2CCC[C@@](C)(N)C2)cc2nc(-c3cc4cccc5c4n3CCN5CCCO)n(C)c12 [Example 16, (R)-(3-amino-3-methylpiperidin-1-yl)(2-(1-(3-hydroxypropyl)-2,3-dihydro-1H-pyrrolo[1,2,3-de]quinoxalin-5-yl)-7-methoxy-1-methyl-1H-benzo[d]imidazol-5-yl)methanone] | > 5000 nM
